Literature values, collected in US6054466A, “Inhibitors of farnesyl-protein transferase” (Merck & Co., Inc., priority 1998, dated 2000).

Columns and labels:
[1] = tested on: farnesyl-protein transferase; settings: via HMG-CoA reductase inhibition
[2] = tested on: Ras processing; settings: by inhibiting the rate-limiting step in the isoprenoid biosynthetic pathway

| SMILES | Indirect inhibition of farnesyl-protein transferase in vivo [1] | Block of Ras processing in cells [2] |
| --- | --- | --- |
| CC[C@H](C)C(=O)O[C@H]1CCC=C2C=C[C@H](C)[C@H](CC[C@@H]3C[C@@H](O)CC(=O)O3)[C@H]21 [compactin] | Indirect inhibition | – |
| CC[C@H](C)C(=O)O[C@H]1C[C@@H](C)C=C2C=C[C@H](C)[C@H](CC[C@@H]3C[C@@H](O)CC(=O)O3)[C@H]21 [lovastatin] | Indirect inhibition | blocks Ras processing in cells |
